Data as given in patent publication US11573234B2, “Predicting responders to cyclophosphamide therapy” (Royal Melbourne Institute of Technology, priority 2017, dated 2023).
Where two headings read alike, the source gives them in different places.

What was measured:
[1] = system: recurrent uterine and ovarian cancers; conditions: cited from earlier work; for response rates: second line, recurrent disease, cisplatin uterine, carboplatin ovarian cancers
[2] = system: CCR4 expression on T cells in PBMCs; assay: In vitro drug experiment: CCR4 expression on T cells in PBMCs; conditions: 30 ng/ml, 72 hours
Method: To determine the frequency and phenotype of T cell populations in PBMCs, multicolour flow cytometry was performed using the following surface antibodies: anti-CD3, anti-CD8, anti-CD4, anti-CD25, and anti-CCR4. Antibodies were diluted in dPBS with 5% HS (staining buffer). Cells were stained at room temperature for 15 mins at a final concentration of 10^7 cells/150 μl of antibody cocktail. Cells were then washed twice with stain buffer. A fixable dead cell dye (live/dead, fixable aqua dead cell stain kit, Life Technologies, USA) was used to distinguish between dead and live cells. […] Intracellular levels of FoxP3 were determined following fixation and permeabilisation of cells using a fixation/permeabilisation buffer kit (eBioscience, USA). […] Fluorescence minus one (FMO) controls and isotype-matched antibodies were also used to enable accurate gating. Data were analysed using Flowjo software (TreeStar, USA).
CD4+ and CD8+ T cells were purified by labelling cells with the respective antibodies as described above, then using fluorescence activated cell sorting. […] Following incubation, cells were washed and CCR4 expression on Tregs and effector T cells were determined using flow cytometry as described above. […]

[3] = system: CCR4 expression on T cells
Method: (§1) Ten (10) human patients with gynaecological cancers with ages ranging from 62-82 years were recruited in a bicentric phase II trial. […] Disease progression was determined using RECIST and GCIG CA125 criteria (Rustin G J et al., (2011) Official journal of the International Gynaecological Cancer Society February; 21(2):419-23). From the time of recruitment, written consent was obtained from patients and pre-treatment blood samples were collected. Patients received oral doses of 50 mg cyclophosphamide twice daily (morning and evening), for 3 consecutive days and blood was collected 2 weeks later in EDTA coated tubes for whole blood and serum separation tubes for sera (BD Vacutainer, BD, USA). The treatment cycle and blood sampling were repeated at fortnightly intervals for up to 8 cycles. For healthy samples, buffy coats were obtained from routine blood donations, acquired at the Australian Red Cross Blood Service.
Peripheral blood mononuclear cells (PBMCs) were isolated within 24 hours of blood collection via Ficoll (Amersham Pharmacia Biotech, Sweden) density gradient centrifugation. Cells were then washed in Dulbecco's Phosphate Buffered Saline (dPBS, Sigma-Aldrich, USA). The isolated PBMCs were frozen down in a freeze medium containing 10% DMSO (Sigma-Aldrich, USA) and 90% heat-inactivated fetal calf serum (GIBCO, Life Technologies, USA) or 90% human AB serum (Sera Laboratories International, UK) at a speed of 1° C./min at −80° C. and subsequently stored in liquid nitrogen. Upon thawing, each vial of frozen PBMCs was quickly defrosted in a 37° C. water-bath and re-suspended in AIM-V media (Life Technologies, USA) with 5% normal human serum (HS, Sigma-Aldrich, USA) (complete AIM-V media).
Cells were then washed twice with stain buffer. […] Data were analysed using Flowjo software (TreeStar, USA).
To investigate the effect of cyclophosphamide on CCR4 expression within T cells, the frequency of CCR4^+ cells pre-treatment (n=mean of 7-8 time points) was compared to the frequencies following each cycle of treatment (n=mean of 3-6 time points) for each individual patient.

[4] = system: CD107a on CD4+ and CD8+ T cells; conditions: 3 increased % CCR4 patients; PMA and ionomycin 6 hours
Method: The cytotoxic capacity of T cells was determined by culturing PBMCs with complete AIM-V media at 10^6 cells/500 μl/well in a 48 well plate. […] Brefeldin A (eBioscience, USA) was added at 3 μg/ml for the last 4 hours of incubation. After incubation, cells were washed and labelled for surface markers as described above. Cells were analysed using flow cytometry, unstimulated cells, fluorescence minus one (FMO) and isotype matched antibodies were also used as controls. Data were collected and analysed as above.
The frequencies of CD107a+ cells within CD4+ and CD8+ T cells were determined using samples from 3 of the 4 increased % CCR4 patients at one of the time points when CCR4+ T cell frequencies was increased.

[5] = system: advanced treatment-refractory gynaecological tumours
Method: as §1

[6] = system: ID8 tumour bearing animals; conditions: mouse, in vivo
Method: To address the effects of LDCy on immunity in tumour bearing animals, ID8 implanted animals (n=5/group) were treated at post challenge (at the onset of detectable tumour growth in vivo) with one cycle of LDCy and assessed changes in T cell subsets ex-vivo at days 1, 7 and 14 post in vivo treatment by flow cytometry.

[7] = system: acetylation of H3K9, H3K14 and H3K18; assay: Histone 3 acetylation detection by flow cytometry; assay type: cell-based, human; conditions: 72 hours
Method: The acetylation of histone 3 at lysine (H3K)9, H3K14 and H3K18 was assessed using flow cytometry. […] In the last 4 hours of culture, 50 nM panobinostat (LBH589, a pan histone deacetylase (HDAC) inhibitor) was added to the IL-2 cultures. Cells were harvested and prepared for flow cytometry analysis as described above. Following surface labelling, fixation and permeabilisation, cells were labelled with unconjugated anti-H3K9, anti-H3K14 and anti-H3K18 (Cell Signalling Technology, USA). Secondary labelling was performed using an Alexa Fluor 488 conjugated donkey anti-rabbit Ig antibody (Biolegend, USA). Data were collected and analysed as above.

[8] = increased % CCR4 patients at time points of CCR4 increase, p<0.05

Q: For `N.N.O=C([O-])C1(C(=O)[O-])CCC1.[Pt+2]` [carboplatin], which response rates [1] is on record?
A: The response rates was “around 20%”.

Q: With `CC(=O)O[C@H]1C(=O)[C@@]2(C)[C@H]([C@H](OC(=O)c3ccccc3)[C@]3(O)C[C@H](OC(=O)[C@H](O)[C@@H](NC(=O)c4ccccc4)c4ccccc4)C(C)=C1C3(C)C)[C@]1(OC(C)=O)CO[C@@H]1C[C@@H]2O` [paclitaxel] as the molecule, how does the “frequency of CCR4+ T cells in healthy PBMCs” value [2] read?
A: Its value is “does not Significantly Increase”.

Q: For `O=P1(N(CCCl)CCCl)NCCCO1` (centres unmarked) [cyclophosphamide], which “clinical benefit (share of patients)” value ([1]; low dose, women with recurrent ovarian cancer) is on record?
A: Its value is 25-44%.

Q: And the “mean ratio of CCR4+ Tconvs to CCR4+ Tregs, increased % CCR4 vs constant % CCR4 patients” value ([3]; first 3 cycles of treatment, p<0.01)?
A: The value was “over 2 fold”.

Q: What about the “mean ratio of CCR4+ CD8+ T cells to CCR4+ Tregs, increased % CCR4 vs constant % CCR4 patients” value ([3]; first 3 cycles of treatment, p<0.05) of the same molecule?
A: The value was “over 3 fold”.

Q: What about the “frequency of CCR4+ cells within Tregs compared to pre-treatment” value ([3]; increased % CCR4 patients at time points of CCR4 increase) of the same molecule?
A: Its value is “not significantly increased”.

Q: And the “fold increase in the frequency of CCR4+ cells within CD8+ T cells compared to pre-treatment” value [3, 8]?
A: Its value is 5 fold.

Q: And the “fold increase in the frequency of CCR4+ cells within Tconvs compared to pre-treatment” value [3, 8]?
A: Its value is 5 fold.

Q: And the “CCR4 mean fluorescence intensity (MFI) within Tregs, Tconvs and CD8+ T cells relative to pre-treatment” value ([3]; increased % CCR4 patients, all 3 populations)?
A: Its value is “remained unchanged”.

Q: And the “patients with significant increases in the frequency of CCR4+ cells within CD3+ T cells” value ([3]; of the 10 patients, following at least one cycle, within the first 3 cycles)?
A: Its value is 4.

Q: What about the “mean frequency of CD107a+ cells in CD4+ and CD8+ populations vs pre-treatment” value [4] of the same molecule?
A: The value was “increased compared to pre-treatment samples, however neither increase was significant”.

Q: What about the mean overall survival ([5]; CCR4 spike patients (n=4)) of the same molecule?
A: Its mean overall survival is 476 ± 80 days.

Q: And the mean overall survival ([5]; CCR4 steady patients (n=6))?
A: The mean overall survival was 163 ± 37 days.

Q: And the “patients who achieved stable disease” value ([5]; of the 4 CCR4 spike patients)?
A: Its value is 3.

Q: And the “patients who achieved stable disease” value ([5]; of the 6 CCR4 steady patients)?
A: The value was “None”.

Q: And the increase in survival ([5]; patients with CCR4 up-regulation in vivo and in the in vitro CUP pre-test)?
A: The increase in survival was > 300 days.

Q: And the “survival of CCR4 spike patients relative to CCR4 steady patients” value ([5]; spike vs steady patients)?
A: Its value is “approximately 3 times”.

Q: And the “CCR4+ CD4 T cell effectors in peripheral blood” value [6]?
A: The value was “a trend towards CCR4^+ CD4 T cell effector increases”.

Q: And the “CCR4+ Treg in peripheral blood” value [6]?
A: The value was “no increases”.

Q: And the “CCR4+CD8+ T cells in peripheral blood” value [6]?
A: The value was “clear increases”.

Q: And the “CD69+ CD4 T cell effectors in TILS” value [6]?
A: Its value is “a trend towards CD69^+ CD4 T cell effector increases”.

Q: And the “CD69+ Treg in TILS” value [6]?
A: Its value is “no CD69^+Treg increases”.

Q: And the “CD69+CD8+ T cells in tumour infiltrating lymphocytes (TILS)” value [6]?
A: The value was “clearly increased”.

Q: With `N.N.[Cl][Pt][Cl]` [cisplatin] as the molecule, how does the response rates [1] read?
A: The response rates was “around 20%”.

B1: IL-4: IL-4 (R&D systems, USA), cytokine used at 10 ng/ml (protein, UniProt P05112 25-153, looked up)
Interleukin-4: HKCDITLQEIIKTLNSLTEQKTLCTELTVTDIFAASKNTTEKETFCRAATVLRQFYSHHEKDTRCLGATAQQFHRHKQLIRFLKRLDRNLWGLAGLNSCPVKEANQSTLENFLERLKTIMREKYSKCSS
Q: Which “acetylation of H3K9 in CD8+ T cells” value ([7]; IL-4 10 ng/ml, p<0.05) does the source give for B1 here?
A: The value was “slight but significant decrease”.

Q: What about the “acetylation of H3K14” value ([7]; mafosfamide […] or IL-4 10 ng/ml) of the same molecule?
A: The value was “Neither mafosfamide nor IL-4 treatment resulted in a change”.
